Reference: US9242933B2 (AbbVie Deutschland GmbH & Co. KG, priority 2007, dated 2016)

Molecular target: T1, human mGlu2 receptor (Homo sapiens, UniProt Q14416)
T1 construct: expressed in transfected cells; host or cells: HEK293
Assay: FLIPR intracellular Ca2+ assay, potentiation of glutamate response in HEK293 clone expressing mGlu2 receptor, rGLAST and Galpha16
Format: cell-based
Conditions: 1 μM glutamate added ten minutes after test compound, HEK293 cells with human mGlu2, rGLAST, Galpha16, read-out: EC50 values of potentiation effect to glutamate
Procedure, shortened: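 HEK293 cells stably expressing human mGlu2, rat GLAST and Gα16 were loaded with 2 µM Fluo-4 AM and intracellular Ca2+ read by FLIPR. Compound added alone (agonism), then with submaximal glutamate (e.g. 1 µM; potentiation). Background-subtracted peaks normalized to 100 µM glutamate response; EC50 from four-parameter fit.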

T1 sequence (Q14416 19-872): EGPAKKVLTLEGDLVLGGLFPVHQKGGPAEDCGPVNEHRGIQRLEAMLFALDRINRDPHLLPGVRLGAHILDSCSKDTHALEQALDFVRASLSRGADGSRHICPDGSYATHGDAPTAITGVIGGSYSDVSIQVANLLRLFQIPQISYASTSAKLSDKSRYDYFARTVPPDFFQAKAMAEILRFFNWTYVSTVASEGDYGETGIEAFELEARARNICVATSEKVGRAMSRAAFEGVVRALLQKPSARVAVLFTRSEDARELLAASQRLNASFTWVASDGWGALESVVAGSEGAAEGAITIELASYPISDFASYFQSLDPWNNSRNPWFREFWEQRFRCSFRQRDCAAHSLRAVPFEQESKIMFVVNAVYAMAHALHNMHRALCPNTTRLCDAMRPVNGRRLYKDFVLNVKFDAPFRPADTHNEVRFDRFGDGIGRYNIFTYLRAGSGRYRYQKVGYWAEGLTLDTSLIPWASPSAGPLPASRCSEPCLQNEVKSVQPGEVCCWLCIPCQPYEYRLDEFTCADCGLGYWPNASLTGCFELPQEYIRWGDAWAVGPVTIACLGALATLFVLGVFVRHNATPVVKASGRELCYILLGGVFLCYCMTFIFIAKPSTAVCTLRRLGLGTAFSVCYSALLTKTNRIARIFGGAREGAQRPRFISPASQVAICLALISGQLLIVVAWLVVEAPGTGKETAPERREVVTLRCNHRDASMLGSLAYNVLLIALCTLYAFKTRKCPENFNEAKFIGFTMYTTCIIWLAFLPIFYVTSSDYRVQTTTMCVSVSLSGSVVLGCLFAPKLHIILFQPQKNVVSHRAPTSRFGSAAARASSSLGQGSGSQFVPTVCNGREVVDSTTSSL

Row | EC50 [µM] | SMILES
1 | < 1 | CCCC(=O)c1ccc(NCc2c[nH]nc2-c2ccccc2Cl)cc1 [Example 510, 1-(4-{[3-(2-Chloro-phenyl)-1H-pyrazol-4-ylmethyl]-amino}-phenyl)-butan-1-one]
2 | < 1 | CCCC(=O)c1ccc(NCc2c[nH]nc2-c2cccc(F)c2)cc1 [Example 511, 1-(4-{[3-(3-Fluorophenyl)-1H-pyrazol-4-ylmethyl]-amino}-phenyl)-butan-1-one]
3 | < 1 | CCCC(=O)c1ccc(NCc2n[nH]cc2-c2ccc(OC)cc2)cc1 [Example 513, 1-(4-{[4-(4-Methoxy-phenyl)-1H-pyrazol-3-ylmethyl]-amino}-phenyl)-butan-1-one]
4 | 1 to 10 | CCCC(=O)c1cccc(NCc2n[nH]cc2-c2ccc(OC)cc2)c1 [Example 514, 1-(3-{[4-(4-Methoxy-phenyl)-1H-pyrazol-3-ylmethyl]-amino}-phenyl)-butan-1-one]
5 | 1 to 10 | CCCC(=O)c1cccc(NCc2n[nH]cc2-c2ccc(CC)cc2)c1 [Example 515, 1-(3-{[4-(4-Ethyl-phenyl)-1H-pyrazol-3-ylmethyl]-amino}-phenyl)-butan-1-one]
6 | < 1 | CCCC(=O)c1ccc(NCc2n[nH]cc2-c2ccc(CC)cc2)cc1 [Example 516, 1-(4-{[4-(4-Ethyl-phenyl)-1H-pyrazol-3-ylmethyl]-amino}-phenyl)-butan-1-one]
7 | < 1 | CCCC(=O)c1ccc(NCc2n[nH]cc2-c2ccc(C(F)(F)F)cc2)cc1 [Example 517, 1-(4-{[4-(4-Trifluoromethyl-phenyl)-1H-pyrazol-3-ylmethyl]-amino}-phenyl)-butan-1-one]
8 | 1 to 10 | CCCC(=O)c1ccc(NCc2n[nH]cc2-c2ccc(Cl)cc2)cc1 [Example 518, 1-(4-{[4-(4-Chloro-phenyl)-1H-pyrazol-3-ylmethyl]-amino}-phenyl)-butan-1-one]
9 | 1 to 10 | CCCC(=O)c1ccc(NCc2n[nH]nc2-c2ccccc2)cc1 [Example 519]
10 | < 1 | CCCC(=O)c1ccc(OCc2n[nH]cc2-c2ccc(OC)cc2)cc1 [Example 520, 1-{4-[4-(4-Methoxy-phenyl)-1H-pyrazol-3-ylmethoxy]-phenyl}-butan-1-one]
11 | < 1 | CCCC(=O)c1ccc(OCc2n[nH]cc2-c2ccc(CC)cc2)cc1 [Example 521, 1-{4-[4-(4-Ethyl-phenyl)-1H-pyrazol-3-ylmethoxy]-phenyl}-butan-1-one]
12 | 1 to 10 | CCCC(=O)c1ccc(NCc2n[nH]cc2Br)cc1 [Example 522]
13 | 1 to 10 | CCCC(=O)c1ccc(NCc2c[nH]cc2-c2ccccc2)cc1 [Example 523, 1-{4-[(4-Phenyl-1H-pyrrol-3-ylmethyl)-amino]-phenyl}-butan-1-one]
14 | 1 to 10 | CCCC(=O)c1ccc(NCc2ccncc2-c2ccccc2)cc1 [Example 524, 1-{4-[(3-Phenyl-pyridin-4-ylmethyl)-amino]-phenyl}-butan-1-one]
15 | < 1 | CCCC(=O)c1ccc(NCc2cnccc2-c2ccccc2)cc1 [Example 525, 1-{4-[(4-Phenyl-pyridin-3-ylmethyl)-amino]-phenyl}-butan-1-one]
16 | 1 to 10 | CCCC(=O)c1ccc(NCc2cccnc2-c2ccccc2)cc1 [Example 526, 1-{4-[(2-Phenyl-pyridin-3-ylmethyl)-amino]-phenyl}-butan-1-one]
17 | 1 to 10 | CCCC(=O)c1ccc(NCc2cnn3ccccc23)cc1 [Example 529, 1-{4-[(Pyrazolo[1,5-a]pyridin-3-ylmethyl)-amino]-phenyl}-butan-1-one]
18 | < 1 | CCCN1Cc2cc(OCc3c[nH]nc3-c3ccc(C(F)(F)F)cc3)ccc2C1=O [Example 531, 2-Propyl-5-[3-(4-trifluoromethyl-phenyl)-1H-pyrazol-4-ylmethoxy]-2,3-dihydro-isoindol-1-one]
19 | < 1 | CCCN1Cc2cc(OCc3c[nH]nc3-c3cccc(C(F)(F)F)c3)ccc2C1=O [Example 532, 2-Propyl-5-[3-(3-trifluoromethyl-phenyl)-1H-pyrazol-4-ylmethoxy]-2,3-dihydro-isoindol-1-one]
20 | < 1 | CCCN1Cc2cc(OCc3c[nH]nc3-c3ccc(F)cc3)ccc2C1=O [Example 533, 5-[3-(4-Fluorophenyl)-1H-pyrazol-4-ylmethoxy]-2-propyl-2,3-dihydro-isoindol-1-one]
21 | < 1 | CCCN1Cc2cc(OCc3c[nH]nc3-c3ccc(Cl)cc3)ccc2C1=O [Example 534, 5-[3-(4-Chloro-phenyl)-1H-pyrazol-4-ylmethoxy]-2-propyl-2,3-dihydro-isoindol-1-one]

Row | EC50 [µM] | SMILES
22 | < 1 | CCCN1Cc2cc(OCc3c[nH]nc3-c3cccc(Cl)c3)ccc2C1=O [Example 535, 5-[3-(3-Chloro-phenyl)-1H-pyrazol-4-ylmethoxy]-2-propyl-2,3-dihydro-isoindol-1-one]
23 | < 1 | CCCN1Cc2cc(OCc3c[nH]nc3-c3cccc(F)c3)ccc2C1=O [Example 536, 5-[3-(3-Fluorophenyl)-1H-pyrazol-4-ylmethoxy]-2-propyl-2,3-dihydro-isoindol-1-one]
24 | < 1 | CCCN1Cc2cc(OCc3c[nH]nc3-c3ccccc3)ccc2C1=O [Example 537, 5-(3-Phenyl-1H-pyrazol-4-ylmethoxy)-2-propyl-2,3-dihydro-isoindol-1-one]
25 | < 1 | O=C1c2ccc(OCc3c[nH]nc3-c3cccc(C(F)(F)F)c3)cc2CN1CCC(F)(F)F [Example 538, 5-[3-(3-Trifluoromethyl-phenyl)-1H-pyrazol-4-ylmethoxy]-2-(3,3,3-trifluoro-propyl)-2,3-dihydro-isoindol-1-one]
26 | < 1 | O=C1c2ccc(OCc3c[nH]nc3-c3ccc(Cl)cc3)cc2CN1CCC(F)(F)F [Example 539, 5-[3-(4-Chloro-phenyl)-1H-pyrazol-4-ylmethoxy]-2-(3,3,3-trifluoro-propyl)-2,3-dihydro-isoindol-1-one]
27 | < 1 | O=C1c2ccc(OCc3c[nH]nc3-c3ccc(F)cc3)cc2CN1CCC(F)(F)F [Example 540, 5-[3-(4-Fluorophenyl)-1H-pyrazol-4-ylmethoxy]-2-(3,3,3-trifluoro-propyl)-2,3-dihydro-isoindol-1-one]
28 | < 1 | O=C1c2ccc(OCc3c[nH]nc3-c3cccc(F)c3)cc2CN1CCC(F)(F)F [Example 541, 5-[3-(3-Fluorophenyl)-1H-pyrazol-4-ylmethoxy]-2-(3,3,3-trifluoro-propyl)-2,3-dihydro-isoindol-1-one]
29 | < 1 | O=C1c2ccc(OCc3c[nH]nc3-c3ccc(C(F)(F)F)cc3)cc2CN1CCC(F)(F)F [Example 542, 5-[3-(4-Trifluoromethyl-phenyl)-1H-pyrazol-4-ylmethoxy]-2-(3,3,3-trifluoro-propyl)-2,3-dihydro-isoindol-1-one]
30 | < 1 | O=C1c2ccc(OCc3c[nH]nc3-c3ccccc3)cc2CN1CCC(F)(F)F [Example 543, 5-(3-Phenyl-1H-pyrazol-4-ylmethoxy)-2-(3,3,3-trifluoro-propyl)-2,3-dihydro-isoindol-1-one]
31 | < 1 | CCCCN1Cc2cc(OCc3c[nH]nc3-c3ccc(C(F)(F)F)cc3)ccc2C1=O [Example 544, 2-Butyl-5-[3-(4-trifluoromethyl-phenyl)-1H-pyrazol-4-ylmethoxy]-2,3-dihydro-isoindol-1-one]
32 | < 1 | CCCCN1Cc2cc(OCc3c[nH]nc3-c3cccc(C(F)(F)F)c3)ccc2C1=O [Example 545, 2-Butyl-5-[3-(3-trifluoromethyl-phenyl)-1H-pyrazol-4-ylmethoxy]-2,3-dihydro-isoindol-1-one]
33 | < 1 | CCCCN1Cc2cc(OCc3c[nH]nc3-c3ccc(Cl)cc3)ccc2C1=O [Example 546, 2-Butyl-5-[3-(4-chloro-phenyl)-1H-pyrazol-4-ylmethoxy]-2,3-dihydro-isoindol-1-one]
34 | < 1 | CCCCN1Cc2cc(OCc3c[nH]nc3-c3ccc(Cl)c(Cl)c3)ccc2C1=O [Example 547, 2-Butyl-5-[3-(3,4-dichloro-phenyl)-1H-pyrazol-4-ylmethoxy]-2,3-dihydro-isoindol-1-one]
35 | < 1 | CCCCN1Cc2cc(OCc3c[nH]nc3-c3ccc(F)cc3)ccc2C1=O [Example 548, 2-Butyl-5-[3-(4-fluorophenyl)-1H-pyrazol-4-ylmethoxy]-2,3-dihydro-isoindol-1-one]
36 | < 1 | CCCCN1Cc2cc(OCc3c[nH]nc3-c3cccc(Cl)c3)ccc2C1=O [Example 549, 2-Butyl-5-[3-(3-chloro-phenyl)-1H-pyrazol-4-ylmethoxy]-2,3-dihydro-isoindol-1-one]
37 | < 1 | CCCCN1Cc2cc(OCc3c[nH]nc3-c3cccc(F)c3)ccc2C1=O [Example 550, 2-Butyl-5-[3-(3-fluorophenyl)-1H-pyrazol-4-ylmethoxy]-2,3-dihydro-isoindol-1-one]
38 | < 1 | CCCCN1Cc2cc(OCc3c[nH]nc3-c3ccccc3)ccc2C1=O [Example 551, 2-Butyl-5-(3-phenyl-1H-pyrazol-4-ylmethoxy)-2,3-dihydro-isoindol-1-one]
39 | < 1 | O=C1c2ccc(OCc3c[nH]nc3-c3ccc(C(F)(F)F)cc3)cc2CN1CCCC(F)(F)F [Example 552, 2-(4,4,4-Trifluoro-butyl)-5-[3-(4-trifluoromethyl-phenyl)-1H-pyrazol-4-ylmethoxy]-2,3-dihydro-isoindol-1-one]
40 | < 1 | O=C1c2ccc(OCc3c[nH]nc3-c3ccccc3)cc2CN1CCCC(F)(F)F [Example 553, 5-(3-Phenyl-1H-pyrazol-4-ylmethoxy)-2-(4,4,4-trifluoro-butyl)-2,3-dihydro-isoindol-1-one]
41 | < 1 | O=C1c2ccc(OCc3c[nH]nc3-c3ccc(Cl)c(Cl)c3)cc2CN1CCCC(F)(F)F [Example 554, 5-[3-(3,4-dichloro-phenyl)-1H-pyrazol-4-ylmethoxy]-2-(4,4,4-trifluoro-butyl)-2,3-dihydro-isoindol-1-one]
42 | < 1 | CCN1Cc2cc(OCc3c[nH]nc3-c3cccc(C(F)(F)F)c3)ccc2C1=O [Example 558, 2-Ethyl-5-[3-(3-trifluoromethyl-phenyl)-1H-pyrazol-4-ylmethoxy]-2,3-dihydro-isoindol-1-one]
